biological target: T1, human GPR17 receptor (Homo sapiens, UniProt Q13304); experiment: Calcium mobilization functional assay (Fluo-8, FLIPR TETRA) in HEK-293 hGPR17 (Gα-q assay); type: cell-based; details: antagonism of MDL29,951 (~EC80) induced Ca2+ signal; cell line (HEK-293 hGPR17 or HEK-293 Suchi5 hGPR17) not given
T1 construct: host or cells: HEK-293
Procedure, shortened: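 Fluo-8-loaded HEK-293 hGPR17 cells (60 min dye loading, room temperature) were preincubated with compound for twenty minutes, then challenged with agonist MDL29,951 at ~EC80, 500 nM. Intracellular calcium release via Gα-q was recorded as FLIPR fluorescence for a further 2 minutes; compounds tested in duplicate.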

T1 sequence (Q13304 whole entry): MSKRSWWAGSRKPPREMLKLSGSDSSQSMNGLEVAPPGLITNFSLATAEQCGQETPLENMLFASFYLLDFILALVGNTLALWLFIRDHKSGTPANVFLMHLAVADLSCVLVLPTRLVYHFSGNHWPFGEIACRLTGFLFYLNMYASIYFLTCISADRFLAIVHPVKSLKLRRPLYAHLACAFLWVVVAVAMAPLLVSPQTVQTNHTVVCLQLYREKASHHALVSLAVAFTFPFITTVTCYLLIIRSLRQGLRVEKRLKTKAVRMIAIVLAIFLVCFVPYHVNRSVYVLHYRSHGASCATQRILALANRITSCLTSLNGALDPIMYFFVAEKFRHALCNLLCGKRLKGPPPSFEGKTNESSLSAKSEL

SMILES	IC50
O=S(=O)(Nc1cc(F)c(C(F)(F)F)cc1F)c1c[nH]c(-c2ccccc2C(F)(F)F)c1 [Cpd 361, N-[2,5-difluoro-4-(trifluoromethyl)phenyl]-5-[2-(trifluoromethyl)phenyl]-1H-pyrrole-3-sulfonamide]	0.5 to 5 µM
O=S(=O)(Nc1cc(F)c(C(F)(F)F)cc1F)c1c[nH]c(-c2ccc(Cl)cc2F)c1 [Cpd 362, 5-(4-chloro-2-fluoro-phenyl)-N-[2,5-difluoro-4-(trifluoromethyl)phenyl]-1H-pyrrole-3-sulfonamide]	5 to 50 µM
O=S(=O)(Nc1cc(F)c(C(F)(F)F)cc1F)c1c[nH]c(-c2c(F)cccc2Cl)c1 [Cpd 363, 5-(2-chloro-6-fluoro-phenyl)-N-[2,5-difluoro-4-(trifluoromethyl)phenyl]-1H-pyrrole-3-sulfonamide]	0.5 to 5 µM
O=S(=O)(Nc1cc(F)c(C(F)(F)F)cc1F)c1c[nH]cc1-c1cccc(F)c1 [Cpd 364, N-[2,5-difluoro-4-(trifluoromethyl)phenyl]-4-(3-fluorophenyl)-1H-pyrrole-3-sulfonamide]	0.5 to 5 µM
O=S(=O)(Nc1cc(F)c(C(F)(F)F)cc1F)c1c[nH]c(-c2cccc(C(F)(F)F)c2)c1 [Cpd 365, N-[2,5-difluoro-4-(trifluoromethyl)phenyl]-5-[3-(trifluoromethyl)phenyl]-1H-pyrrole-3-sulfonamide]	0.5 to 5 µM
O=S(=O)(Nc1cc(F)c(C(F)(F)F)cc1F)c1c[nH]c(-c2ccc(F)cc2F)c1 [Cpd 366, 5-(2,4-difluorophenyl)-N-[2,5-difluoro-4-(trifluoromethyl)phenyl]-1H-pyrrole-3-sulfonamide]	0.5 to 5 µM
COCc1cccc(Cc2c[nH]cc2S(=O)(=O)Nc2ccc(C#N)cc2F)c1 [Cpd 368, N-(4-cyano-2-fluoro-phenyl)-4-[[3-(methoxymethyl)phenyl]methyl]-1H-pyrrole-3-sulfonamide]	0.5 to 5 µM
O=S(=O)(Nc1cc(F)c(C(F)(F)F)cc1F)c1c[nH]c(-c2ccc(C(F)(F)F)cn2)c1 [Cpd 369, N-[2,5-difluoro-4-(trifluoromethyl)phenyl]-5-[5-(trifluoromethyl)-2-pyridyl]-1H-pyrrole-3-sulfonamide]	5 to 50 µM
O=S(=O)(Nc1cc(F)c(C(F)(F)F)cc1F)c1c[nH]c(-c2cc(C(F)(F)F)ccn2)c1 [Cpd 370, N-[2,5-difluoro-4-(trifluoromethyl)phenyl]-5-[4-(trifluoromethyl)-2-pyridyl]-1H-pyrrole-3-sulfonamide]	5 to 50 µM
O=S(=O)(Nc1cc(F)c(C(F)(F)F)cc1F)c1c[nH]c(-c2cccc(Br)n2)c1 [Cpd 371, 5-(6-bromo-2-pyridyl)-N-[2,5-difluoro-4-(trifluoromethyl)phenyl]-1H-pyrrole-3-sulfonamide]	0.5 to 5 µM
N#Cc1ccc(NS(=O)(=O)c2c[nH]c(-c3cccc(C(F)(F)F)n3)c2)c(F)c1 [Cpd 373, N-(4-cyano-2-fluoro-phenyl)-5-[6-(trifluoromethyl)-2-pyridyl]-1H-pyrrole-3-sulfonamide]	0.5 to 5 µM
O=S(=O)(Nc1cnc(C(F)(F)F)s1)c1c[nH]c(-c2ccccc2)c1 [Cpd 375, 5-phenyl-N-[2-(trifluoromethyl)thiazol-5-yl]-1H-pyrrole-3-sulfonamide]	5 to 50 µM
O=S(=O)(Nc1cc(Cl)c(C(F)(F)F)cc1F)c1c[nH]c(-c2ccccc2)c1 [Cpd 378, N-[5-chloro-2-fluoro-4-(trifluoromethyl)phenyl]-5-phenyl-1H-pyrrole-3-sulfonamide]	0.5 to 5 µM
O=S(=O)(Nc1cc(Cl)c(C(F)(F)F)cc1F)c1c[nH]c(-c2ccccn2)c1 [Cpd 379, N-[5-chloro-2-fluoro-4-(trifluoromethyl)phenyl]-5-pyridin-2-yl-1H-pyrrole-3-sulfonamide]	0.5 to 5 µM
N#Cc1ccc(NS(=O)(=O)c2c[nH]cc2-c2cccc3ccccc23)c(F)c1 [Cpd 381, N-(4-cyano-2-fluorophenyl)-4-naphthalen-1-yl-1H-pyrrole-3-sulfonamide]	5 to 50 µM
N#Cc1ccc(NS(=O)(=O)c2c[nH]c(-c3cccc4ccccc34)c2)c(F)c1 [Cpd 382, N-(4-cyano-2-fluorophenyl)-5-naphthalen-1-yl-1H-pyrrole-3-sulfonamide]	0.5 to 5 µM
Cc1c(C(F)(F)F)ccc(NS(=O)(=O)c2c[nH]c(-c3ccccn3)c2)c1F [Cpd 383, N-[2-fluoro-3-methyl-4-(trifluoromethyl)phenyl]-5-pyridin-2-yl-1H-pyrrole-3-sulfonamide]	5 to 50 µM
Cc1ccccc1Cc1c[nH]cc1S(=O)(=O)Nc1ccc(C#N)cc1F [Cpd 384, N-(4-cyano-2-fluorophenyl)-4-[(2-methylphenyl)methyl]-1H-pyrrole-3-sulfonamide]	0.5 to 5 µM
Cc1ccc(Cc2c[nH]cc2S(=O)(=O)Nc2ccc(C#N)cc2F)cc1 [Cpd 385, N-(4-cyano-2-fluorophenyl)-4-[(4-methylphenyl)methyl]-1H-pyrrole-3-sulfonamide]	5 to 50 µM
N#Cc1ccc(NS(=O)(=O)c2c[nH]cc2Cc2ccccc2C(F)(F)F)c(F)c1 [Cpd 386, N-(4-cyano-2-fluorophenyl)-4-[[2-(trifluoromethyl)phenyl]methyl]-1H-pyrrole-3-sulfonamide]	5 to 50 µM

Results, then the compound that gave them:

IC50	SMILES
0.5 to 5 µM	O=S(=O)(Nc1cc(F)c(C(F)(F)F)cc1F)c1c[nH]c(-c2cccc(Cl)c2)c1 [Cpd 356, 5-(3-chlorophenyl)-N-[2,5-difluoro-4-(trifluoromethyl)phenyl]-1H-pyrrole-3-sulfonamide]
< 0.5 µM	N#Cc1cc(F)c(NS(=O)(=O)c2c[nH]c(-c3ccccn3)c2)cc1Cl [Cpd 357, N-(5-chloro-4-cyano-2-fluoro-phenyl)-5-(2-pyridyl)-1H-pyrrole-3-sulfonamide]
< 0.5 µM	N#Cc1ccc(NS(=O)(=O)c2c[nH]c(C3=CCCCC3)c2)c(F)c1 [Cpd 358, N-(4-cyano-2-fluoro-phenyl)-5-(cyclohexen-1-yl)-1H-pyrrole-3-sulfonamide]
0.5 to 5 µM	O=S(=O)(Nc1cc(F)c(Br)cc1F)c1c[nH]cc1-c1cccc(F)c1 [Cpd 359, N-(4-bromo-2,5-difluoro-phenyl)-4-(3-fluorophenyl)-1H-pyrrole-3-sulfonamide]
< 0.5 µM	O=S(=O)(Nc1cc(F)c(OC(F)F)cc1F)c1c[nH]cc1-c1cccc(F)c1 [Cpd 360, N-[4-(difluoromethoxy)-2,5-difluoro-phenyl]-4-(3-fluorophenyl)-1H-pyrrole-3-sulfonamide]
< 0.5 µM	CSc1cccc(Cc2c[nH]cc2S(=O)(=O)Nc2ccc(C#N)cc2F)c1 [Cpd 367, N-(4-cyano-2-fluoro-phenyl)-4-[(3-methylsulfanylphenyl)methyl]-1H-pyrrole-3-sulfonamide]
< 0.5 µM	N#Cc1ccc(NS(=O)(=O)c2c[nH]c(-c3cccc(Cl)n3)c2)c(F)c1 [Cpd 372, 5-(6-chloro-2-pyridyl)-N-(4-cyano-2-fluoro-phenyl)-1H-pyrrole-3-sulfonamide]
< 0.5 µM	N#Cc1ccc(NS(=O)(=O)c2c[nH]c(-c3cccc(Br)n3)c2)c(F)c1 [Cpd 374, 5-(6-bromo-2-pyridyl)-N-(4-cyano-2-fluoro-phenyl)-1H-pyrrole-3-sulfonamide]
< 0.5 µM	N#Cc1ccc(NS(=O)(=O)c2c[nH]c(-c3cccc4cccnc34)c2)c(F)c1 [Cpd 380, N-(4-cyano-2-fluorophenyl)-5-(guinolin-8-yl)-1H-pyrrole-3-sulfonamide]

Reference: patent publication US20240299385A1 (ReWind Therapeutics NV, priority 2021, published 2024)
